Assay results from ChEMBL document CHEMBL4138123, “Design, synthesis and biological evaluation of novel pyrazolochalcones as potential modulators of PI3K/Akt/mTOR pathway and inducers of apoptosis in breast cancer cells” (Eur J Med Chem, 2017).

Assays:
Format in all cases: functional
HCT-15 [1] = assay: Cytotoxicity against human HCT15 cells assessed as cell growth at 10 uM after 48 hrs by sulforhodamine B assay relative to control; details: HCT-15, 48 h, read-out: Activity
SN12C = assay: Cytotoxicity against human SN12C cells assessed as cell growth at 0.01 uM after 48 hrs by sulforhodamine B assay relative to control; details: read-out: Activity
U-251 [2] = assay: Cytotoxicity against human U251 cells assessed as cell growth at 0.01 uM after 48 hrs by sulforhodamine B assay relative to control; details: U-251, 48 h, read-out: Activity
U-251 [3] = assay: Cytotoxicity against human U251 cells assessed as cell growth at 0.1 uM after 48 hrs by sulforhodamine B assay relative to control; details: U-251, 48 h, read-out: Activity
SF-268 = assay: Cytotoxicity against human SF268 cells assessed as cell growth at 100 uM after 48 hrs by sulforhodamine B assay relative to control; details: SF-268, 48 h, read-out: Activity
Hs-578T [4] = assay: Cytotoxicity against human Hs 578T cells assessed as cell growth at 100 uM after 48 hrs by sulforhodamine B assay relative to control; details: read-out: Activity
HT-29 = assay: Cytotoxicity against human HT-29 cells assessed as cell growth at 100 uM after 48 hrs by sulforhodamine B assay relative to control; details: HT-29, 48 h, read-out: Activity
SF-539 = assay: Cytotoxicity against human SF539 cells assessed as cell growth at 0.01 uM after 48 hrs by sulforhodamine B assay relative to control; details: SF-539, 48 h, read-out: Activity
HCT-15 [5] = assay: Cytotoxicity against human HCT15 cells assessed as cell growth at 0.01 uM after 48 hrs by sulforhodamine B assay relative to control; details: HCT-15, 48 h, read-out: Activity
CCRF-CEM = assay: Cytotoxicity against human CCRF-CEM cells assessed as cell growth at 100 uM after 48 hrs by sulforhodamine B assay relative to control; details: read-out: Activity
SK-MEL-5 = assay: Cytotoxicity against human SK-MEL-5 cells assessed as cell growth at 1 uM after 48 hrs by sulforhodamine B assay relative to control; details: SK-MEL-5, 48 h, read-out: Activity
IGROV-1 = assay: Cytotoxicity against human IGROV1 cells assessed as cell growth at 1 uM after 48 hrs by sulforhodamine B assay relative to control; details: IGROV-1, 48 h, read-out: Activity
RXF 393 [6] = assay: Cytotoxicity against human RXF393 cells assessed as growth inhibition after 48 hrs by sulforhodamine B assay; details: RXF 393, 48 h
SW-620 = assay: Cytotoxicity against human SW620 cells assessed as cell growth at 1 uM after 48 hrs by sulforhodamine B assay relative to control; details: SW-620, 48 h, read-out: Activity
NCI-H460 [7] = assay: Cytotoxicity against human NCI-H460 cells assessed as growth inhibition after 48 hrs by sulforhodamine B assay; details: NCI-H460, 48 h
786-0 [8] = assay: Cytotoxicity against human 786-0 cells assessed as growth inhibition after 48 hrs by sulforhodamine B assay; details: 786-0, 48 h
NCI-H522 [9] = assay: Cytotoxicity against human NCI-H522 cells assessed as cell growth at 1 uM after 48 hrs by sulforhodamine B assay relative to control; details: NCI-H522, 48 h, read-out: Activity
MDA-MB-468 = assay: Cytotoxicity against human MDA-MB-468 cells assessed as cell growth at 0.01 uM after 48 hrs by sulforhodamine B assay relative to control; details: MDA-MB-468, 48 h, read-out: Activity
786-0 [10] = assay: Cytotoxicity against human 786-0 cells assessed as cell growth at 0.1 uM after 48 hrs by sulforhodamine B assay relative to control; details: 786-0, 48 h, read-out: Activity
M14 [11] = assay: Cytotoxicity against human M14 cells assessed as cell growth at 10 uM after 48 hrs by sulforhodamine B assay relative to control; details: M14, 48 h, read-out: Activity
Hs-578T [12] = assay: Cytotoxicity against human Hs 578T cells assessed as cell growth at 10 uM after 48 hrs by sulforhodamine B assay relative to control; details: read-out: Activity
M14 [13] = assay: Cytotoxicity against human M14 cells assessed as cell growth at 100 uM after 48 hrs by sulforhodamine B assay relative to control; details: M14, 48 h, read-out: Activity
OVCAR-4 = assay: Cytotoxicity against human OVCAR4 cells assessed as growth inhibition after 48 hrs by sulforhodamine B assay; details: OVCAR-4, 48 h
ACHN = assay: Cytotoxicity against human ACHN cells assessed as cell growth at 0.1 uM after 48 hrs by sulforhodamine B assay relative to control; details: read-out: Activity
OVCAR-5 = assay: Cytotoxicity against human OVCAR5 cells assessed as cell growth at 10 uM after 48 hrs by sulforhodamine B assay relative to control; details: OVCAR-5, 48 h, read-out: Activity
NCI-H460 [14] = assay: Cytotoxicity against human NCI-H460 cells assessed as cell growth at 10 uM after 48 hrs by sulforhodamine B assay relative to control; details: NCI-H460, 48 h, read-out: Activity
RXF 393 [15] = assay: Cytotoxicity against human RXF393 cells assessed as cell growth at 0.1 uM after 48 hrs by sulforhodamine B assay relative to control; details: RXF 393, 48 h, read-out: Activity
A549 [16] = assay: Cytotoxicity against human A549/ATCC cells assessed as growth inhibition after 48 hrs by sulforhodamine B assay; details: A549, 48 h
HL-60(TB) = assay: Cytotoxicity against human HL-60(TB) cells assessed as cell growth at 0.01 uM after 48 hrs by sulforhodamine B assay relative to control; details: HL-60, 48 h, read-out: Activity
OVCAR-3 = assay: Cytotoxicity against human OVCAR3 cells assessed as cell growth at 10 uM after 48 hrs by sulforhodamine B assay relative to control; details: OVCAR-3, 48 h, read-out: Activity
COLO 205 = assay: Cytotoxicity against human COLO205 cells assessed as cell growth at 100 uM after 48 hrs by sulforhodamine B assay relative to control; details: COLO 205, 48 h, read-out: Activity
A549 [17] = assay: Cytotoxicity against human A549/ATCC cells assessed as cell growth at 0.01 uM after 48 hrs by sulforhodamine B assay relative to control; details: A549, 48 h, read-out: Activity
NCI-H226 = assay: Cytotoxicity against human NCI-H226 cells assessed as cell growth at 1 uM after 48 hrs by sulforhodamine B assay relative to control; details: NCI-H226, 48 h, read-out: Activity
NCI-H522 [18] = assay: Cytotoxicity against human NCI-H522 cells assessed as cell growth at 0.1 uM after 48 hrs by sulforhodamine B assay relative to control; details: NCI-H522, 48 h, read-out: Activity
SR = assay: Cytotoxicity against human SR cells assessed as growth inhibition after 48 hrs by sulforhodamine B assay
DU-145 = assay: Cytotoxicity against human DU145 cells assessed as cell growth at 10 uM after 48 hrs by sulforhodamine B assay relative to control; details: DU-145, 48 h, read-out: Activity

With COc1cc(C(=O)/C=C/c2cc(-c3cc(OC)c(OC)c(OC)c3)n[nH]2)cc(OC)c1OC the growth at 10 µM (HCT-15 [1]) was -71%, the growth at 0.01 µM (SN12C) was 96% and the growth at 0.01 µM (U-251 [2]) was 96%. For the same molecule, the growth at 0.1 µM (U-251 [3]) was 94%, the growth at 100 µM (SF-268) was -75% and the growth at 100 µM (Hs-578T [4]) was -4%. It also gave a growth at 100 µM (HT-29) of -58%, a growth at 0.01 µM (SF-539) of 92% and a growth at 0.01 µM (HCT-15 [5]) of 95%. It also gave a growth at 100 µM (CCRF-CEM) of 2%, a growth at 1 µM (SK-MEL-5) of 86% and a growth at 1 µM (IGROV-1) of 99%. The LC50 (concentration killing 50% of cells) (RXF 393 [6]) was 5.68 µM, the TGI (RXF 393 [6]) was 2.67 µM and the growth at 1 µM (SW-620) was 85%. It also gave an LC50 (NCI-H460 [7]) of 9.91 µM, a TGI (NCI-H460 [7]) of 4.33 µM and an LC50 (786-0 [8]) of 6.76 µM. It also gave a TGI (786-0 [8]) of 3.25 µM, a growth at 1 µM (NCI-H522 [9]) of 29% and a growth at 0.01 µM (MDA-MB-468) of 90%. The growth at 0.1 µM (786-0 [10]) was 105%, the growth at 10 µM (M14 [11]) was -90% and the growth at 10 µM (Hs-578T [12]) was 10%. It also gave a growth at 100 µM (M14 [13]) of -88%, an LC50 (OVCAR-4) of 5.25 µM and a TGI (OVCAR-4) of 2.76 µM. For the same molecule, the growth at 0.1 µM (ACHN) was 100%, the growth at 10 µM (OVCAR-5) was -91% and the growth at 10 µM (NCI-H460 [14]) was -51%. It also gave a growth at 0.1 µM (RXF 393 [15]) of 88%, an LC50 (concentration giving 50% net cell kill) (A549 [16]) of 59.2 µM and a TGI (A549 [16]) of 12.1 µM. For the same molecule, the growth at 0.01 µM (HL-60(TB)) was 112%, the growth at 10 µM (OVCAR-3) was -96% and the growth at 100 µM (COLO 205) was -100%. For the same molecule, the growth at 0.01 µM (A549 [17]) was 97%, the growth at 1 µM (NCI-H226) was 86% and the growth at 0.1 µM (NCI-H522 [18]) was 103%. It also gave a TGI (SR) of over 100 µM and a CC50 (SR; read-out: LC50 (the source's name)) of over 100 µM.

Molecule COc1ccc(C(=O)/C=C/c2cc(-c3ccc(OC)c(OC)c3)n[nH]2)cc1OC has a growth at 10 µM (HCT-15 [1]) of -19%, a growth at 0.01 µM (SN12C) of 101% and a growth at 0.01 µM (U-251 [2]) of 95%. It also gave a growth at 0.1 µM (U-251 [3]) of 89%, a growth at 100 µM (SF-268) of -25% and a growth at 100 µM (Hs-578T [4]) of 18%. The growth at 100 µM (HT-29) was -39%, the growth at 0.01 µM (SF-539) was 89% and the growth at 0.01 µM (HCT-15 [5]) was 96%. For the same molecule, the growth at 100 µM (CCRF-CEM) was -20%, the growth at 1 µM (SK-MEL-5) was 86% and the growth at 1 µM (IGROV-1) was 94%. The GI50 (RXF 393 [6]) was 1.45 µM, the TGI (RXF 393 [6]) was 2.98 µM and the growth at 1 µM (SW-620) was 66%. It also gave a GI50 (NCI-H460 [7]) of 0.606 µM, a TGI (NCI-H460 [7]) of 4.36 µM and a GI50 (786-0 [8]) of 1.81 µM. It also gave a TGI (786-0 [8]) of 5.14 µM, a growth at 10 µM (DU-145) of -34% and a growth at 1 µM (NCI-H522 [9]) of 82%. The growth at 0.01 µM (MDA-MB-468) was 87%, the growth at 0.1 µM (786-0 [10]) was 96% and the growth at 10 µM (M14 [11]) was -58%. For the same molecule, the growth at 10 µM (Hs-578T [12]) was 23%, the growth at 100 µM (M14 [13]) was -51% and the GI50 (OVCAR-4) was 1.92 µM. It also gave a TGI (OVCAR-4) of 8.15 µM, a growth at 0.1 µM (ACHN) of 96% and a growth at 10 µM (OVCAR-5) of -30%. It also gave a growth at 10 µM (NCI-H460 [14]) of -20%, a growth at 0.1 µM (RXF 393 [15]) of 84% and a GI50 (A549 [16]) of 2.25 µM. For the same molecule, the TGI (A549 [16]) was 10.2 µM, the growth at 0.01 µM (HL-60(TB)) was 101% and the growth at 10 µM (OVCAR-3) was -43%. The growth at 100 µM (COLO 205) was -70%, the growth at 0.01 µM (A549 [17]) was 97% and the growth at 1 µM (NCI-H226) was 77%. The growth at 0.1 µM (NCI-H522 [18]) was 94%.

COc1ccc(-c2cc(/C=C/C(=O)c3ccc4c(c3)OCO4)[nH]n2)cc1OC gave a GI50 (RXF 393 [6]) of 1.92 µM, a GI50 (NCI-H460 [7]) of 0.6 µM and a GI50 (786-0 [8]) of 1.81 µM. The GI50 (OVCAR-4) was 1.92 µM, the GI50 (A549 [16]) was 2.25 µM and the GI50 (SR) was 0.25 µM.
